Experimental data as given in the supplement of paper PMC4858399.

Legend:
Conditions in all cases: exposure time 48 h
[1] = tested on: Caenorhabditis elegans N2; assay: lowest effective concentration for larval growth inhibition (size below effect threshold); higher = less potent
Method in brief: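 Each well of a 96-well plate received 50 C. elegans N2 L1 larvae, which grew for 48 h at 20°C in K-medium containing killed bacteria, 1% DMSO and the chemical at 0.5, 1, 5, 10, 50, 100 or 200 µM. A Biosort recorded the extinction of every worm as its size, and these readings were log-transformed and averaged per well. The lowest effective concentration is defined as the first dose at which the plate-adjusted mean size falls below the threshold and stays below it at all higher doses; that threshold is 5.665.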

[2] = tested on: Caenorhabditis elegans N2; assay: mean nematode size ln(EXT) after 48 h, plate-adjusted (DMSO control set to 6) (ln(EXT), control-adjusted); higher = larger nematodes / less growth inhibition
Method in brief: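 Worms were measured individually for extinction on the Biosort after 48 h at 20°C. They began as synchronised C. elegans N2 L1 larvae in K-medium with killed OP50, 1% DMSO and 0.5–200 µM chemical. Once debris had been removed by a growth model, values were natural-logged and averaged per well to give mean size. The plate adjustment subtracted the vehicle control mean and added 6.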

[3] = tested on: Caenorhabditis elegans N2; assay: AC50 for larval growth inhibition (Hill fit); higher = less potent
Method in brief: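 After 48 h at 20°C in K-medium with killed OP50, 1% DMSO and 0.5–200 µM chemical, synchronised C. elegans N2 L1 larvae (50 per well, 96-well plates) were sized individually as extinction on a COPAS Biosort. These values were log-transformed and averaged per well, and wells with fewer than 10 worms were excluded. The AC50 was derived from a constrained Hill fit by weighted genetic-algorithm regression, and out-of-range values are censored.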

SMILES | lowest effective concentration [1] [µM] | mean nematode size ln(EXT) (ln) ([2]; 0.5 µM) | mean nematode size ln(EXT) (ln) ([2]; 1 µM) | mean nematode size ln(EXT) (ln) ([2]; 5 µM) | mean nematode size ln(EXT) (ln) ([2]; 10 µM) | mean nematode size ln(EXT) (ln) ([2]; 50 µM) | mean nematode size ln(EXT) (ln) ([2]; 100 µM) | mean nematode size ln(EXT) (ln) ([2]; 200 µM) | AC50 for larval growth inhibition [3] [µM]
CC(=O)NC1(c2cccc(F)c2)CCN(CC[C@@]2(c3ccc(Cl)c(Cl)c3)CN(c3ccccc3)C(=O)CO2)CC1 | 100 | 5.89 | 5.91 | 5.85 | 5.88 | 5.82 | 5.52 | 5.02 | > 200
CC(C)(O)c1cnn2c(-c3ccc(F)c(-c4c(F)cccc4C#N)c3)cnc2n1 | 100 | 5.88 | 5.79 | 5.71 | 5.8 | 5.82 | 5.66 | 5.05 | > 200
CCC(C)N(C)C(=O)c1cc2ccccc2c(-c2ccccc2Cl)n1 (stereo unspecified) | 100 | 5.92 | 5.93 | 5.99 | 5.97 | 6.11 | 5.55 | 5.43 | 95.2
CCCCCCC(CCCCCCCCCCC(=O)OCC(COC(C)=O)OC(C)=O)OC(C)=O (stereo unspecified) | 50 | 5.48 | 5.6 | 5.59 | 5.69 | 5.64 | 5.58 | 5.53 | > 200
CCN(CC)C(=O)c1cc(S(=O)(=O)Cc2ccccc2)c(N2CCC(c3ccccc3)CC2)cc1N(CC)CCN(C)C | 10 | 5.74 | 5.7 | 5.67 | 5.57 | 4.82 | 4.3 | 3.47 | 72.6
CCN(CC)CCNc1ccc(CNC=O)c2sc3ccc(OC)cc3c(=O)c12 | 10 | 5.89 | 5.87 | 5.75 | 5.65 | 5.25 | 4.73 | 3.81 | 107
CCN(Cc1cccnc1)C(=O)c1cccc(Cl)c1[C@]1(C)C(=O)N(Cc2ccc(OC)cc2OC)c2ccc(Cl)cc21 | 10 | 5.85 | 5.78 | 5.8 | 5.4 | 5.54 | 5.37 | 5.39 | 3.78
CCN1CCC2(CC1)COc1cc3c(cc12)N(C(=O)c1ccc(-c2ccc(-c4nnc(C)o4)cc2C)cc1)CC3 | 50 | 5.74 | 5.82 | 5.74 | 5.84 | 5.56 | 4.06 | 4.5 | 52.6
CCOC(=O)O[C@H](C)OC(=O)c1ccc2c(c1)cc(C(=O)NC1CCN(C(C)C)CC1)n2Cc1cc(-c2ccc(Cl)s2)on1 | 50 | 5.85 | 5.86 | 5.87 | 5.76 | 4.76 | 4.59 | 3.71 | 78.2
CCOC(=O)[C@]1(c2ccccc2)Oc2ccccc2[C@@H]1N | 10 | 5.84 | 5.73 | 5.71 | 5.27 | 4.94 | 5.43 | 4.03 | 56.5
CCOC(=O)c1ccc(C2CCC(NC[C@H](O)COc3ccc(O)c(NS(C)(=O)=O)c3)CC2)cc1 (stereo partly specified) | 100 | 5.91 | 5.88 | 5.77 | 5.77 | 5.7 | 5.57 | 5.48 | > 200
CCOc1cccc(-n2cc(C(=O)N3CCN(c4cc(C(=O)O)c5ccccc5c4)CC3)nc2-c2ccc(C)cc2)c1 | 50 | 5.89 | 5.86 | 5.82 | 5.84 | 4.84 | 4.42 | 3.94 | 57.9
CC[C@H](NC(=O)c1cc(F)ccc1NS(=O)(=O)c1cccc2cccnc12)c1ccccc1 | 10 | 5.88 | 5.83 | 5.85 | 5.52 | 4.56 | 4.28 | 3.77 | 57.4
CN(C)C(=O)C1(N2CCCCC2)CCN(CCC2(c3ccc(Cl)c(Cl)c3)CN(C(=O)c3ccccc3)CCO2)CC1 (stereo unspecified) | 50 | 5.78 | 5.82 | 5.83 | 5.77 | 5.23 | 4.76 | 4.06 | 119
CN(C[C@@H](CC[N+]12CCC(C3CCCCC3)(CC1)CC2)c1ccc(Cl)c(Cl)c1)C(=O)c1cc(C(F)(F)F)cc(C(F)(F)F)c1 | 50 | 5.87 | 6.12 | 5.97 | 5.76 | 3.96 | 3.97 | 3.56 | 22.8
CNCc1cc(F)ccc1Oc1ccc(Cl)c(Cl)c1 | 10 | 5.86 | 5.78 | 5.86 | 5.24 | 4.33 | 4.11 | 3.59 | 39.1
CNS(=O)(=O)c1cc(C(=O)N2CCC(CCN3C4CCC3CC(n3c(C)nc5ccccc53)C4)(c3cccc(F)c3)CC2)c(Cl)cc1F (stereo unspecified) | 50 | 5.68 | 5.79 | 5.77 | 5.78 | 5.62 | 5.38 | 5.41 | > 200
CN[C@H]1CC[C@@H](c2ccc(Cl)c(Cl)c2)c2ccc(S(N)(=O)=O)cc21 | 50 | 5.87 | 5.84 | 5.88 | 5.84 | 5.4 | 4.42 | 3.62 | 90.3
COCCOc1cc2cc(C(=O)NC3CCN(C(C)C)CC3)n(CC(=O)Nc3ccc(Cl)cn3)c2cn1 | 50 | 5.85 | 5.84 | 5.82 | 5.77 | 4.98 | 4.13 | 5.19 | 47.5
COc1ccc(OC(F)(F)F)cc1CN[C@H]1CCCN[C@H]1c1ccccc1 | 50 | 6.04 | 5.82 | 5.68 | 5.67 | 5.39 | 4.71 | 4.55 | 185
COc1ccc2cc(S(=O)(=O)N[C@H](CC(=O)N[C@H](Cc3ccc(CN4[C@H](C)CCC[C@@H]4C)cc3)C(=O)N(C)C(C)C)c3ccc4c(c3)OCO4)ccc2c1 | 100 | 5.87 | 5.8 | 5.85 | 5.73 | 5.76 | 5.43 | 4.99 | > 200
Cc1nc(-c2ccc3c(c2)CCN(CCC2CCC(NC(=O)/C=C/c4ccc(F)cc4)CC2)CC3)no1 (stereo unspecified) | 100 | 5.87 | 5.83 | 5.82 | 5.86 | 5.74 | 5.6 | 5.59 | > 200

SMILES | lowest effective concentration [1] [µM] | mean nematode size ln(EXT) (ln) ([2]; 0.5 µM) | mean nematode size ln(EXT) (ln) ([2]; 1 µM) | mean nematode size ln(EXT) (ln) ([2]; 5 µM) | mean nematode size ln(EXT) (ln) ([2]; 10 µM) | mean nematode size ln(EXT) (ln) ([2]; 50 µM) | mean nematode size ln(EXT) (ln) ([2]; 100 µM) | mean nematode size ln(EXT) (ln) ([2]; 200 µM) | AC50 for larval growth inhibition [3] [µM]
Clc1cc(Cl)c2c(c1)N=C1CCCCCN1C2 | 100 | 5.91 | 5.88 | 5.72 | 5.8 | 5.67 | 5.54 | 4.82 | > 200
Fc1ccccc1[C@@H](F)CO[C@H]1CC[C@H](Nc2[nH]cnc3nncc2-3)CC1 | 100 | 5.89 | 5.84 | 5.82 | 5.68 | 5.67 | 5.25 | 5.4 | > 200
NC(=O)N(O)[C@@H]1C=C[C@H](Oc2cccc(Oc3ccc(F)cc3)c2)C1 | 100 | 5.9 | 6.14 | 6.17 | 6.17 | 5.89 | 5.05 | 4.86 | 72.9
NC(=O)N1C(=O)C(C(=O)c2cc(Cl)cs2)c2cc(F)c(Cl)cc21 (stereo unspecified) | ≤ 0.5 | 5.49 | 4.96 | 4.54 | 4.37 | 4.04 | 4.02 | – | 1.41
NC(=O)c1nc(-c2cccc(-c3cc(F)ccc3OCC(F)(F)C(F)(F)F)c2)n[nH]1 | 50 | 5.73 | 5.81 | 5.71 | 5.78 | 5.53 | 4.97 | 5.09 | 50.6
Nc1cc2c3c(c1)C(c1ccccc1)=N[C@@H](NC(=O)c1cccnc1)C(=O)N3CC2 | 50 | 5.78 | 5.74 | 5.7 | 5.73 | 5.63 | 5.62 | 5.61 | > 200
O=C(NO)C1(NS(=O)(=O)c2ccc(Oc3ccc(F)cc3)cc2)CCOCC1 | 200 | 5.72 | 6.03 | 5.84 | 5.9 | 5.89 | 5.71 | 5.12 | > 200
O=C(N[C@@H](c1ccccc1)[C@@H]1CCCCN1)c1cccc(C(F)(F)F)c1Cl | 10 | 5.86 | 5.78 | 5.75 | 5.66 | 5.2 | 4.58 | 4.47 | 148
O=C(N[C@H](c1ccccc1)[C@@H]1CN2CCC1CC2)c1c(Cl)ccc(C(F)(F)F)c1Cl | 10 | 5.84 | 5.83 | 5.78 | 5.64 | 5.61 | 5.09 | 4.34 | 171
O=C(O)C1(c2ccc3c(c2)OC[C@H](Cc2ccc(-c4ccccc4)cc2)[C@H]3O)CCCC1 | 50 | 5.91 | 5.83 | 5.77 | 5.9 | 5.16 | 4.25 | 4.18 | 52.8
Oc1ccc2c(c1)OC[C@@H](N1CCC(O)(c3ccc(F)cc3)CC1)[C@H]2O | 50 | 5.9 | 6.11 | 6.21 | 6.18 | 5.48 | 4.39 | 4.5 | 51.4
COc1cccc([C@H](O)C2CCN(CCc3ccc(F)cc3)CC2)c1OC [Volinanserin] | > 200 | 5.67 | 5.79 | 5.78 | 5.95 | 5.83 | 5.8 | 5.78 | –
CN(C)C(=S)[S-].CN(C)C(=S)[S-].[Zn+2] [Ziram] | > 200 | 5.98 | 5.89 | 5.78 | 5.83 | 5.84 | 5.75 | 5.77 | –
CCC(C)(NC(=O)c1cc(Cl)c(C)c(Cl)c1)C(=O)CCl (stereo unspecified) [Zoxamide] | > 200 | 5.75 | 5.81 | 5.67 | 5.64 | 5.48 | 4.67 | 5.7 | –
OC[C@H]1O[C@@H]2O[C@H]3[C@H](O)[C@@H](O)[C@@H](O[C@H]4[C@H](O)[C@@H](O)[C@@H](O[C@H]5[C@H](O)[C@@H](O)[C@@H](O[C@H]6[C@H](O)[C@@H](O)[C@@H](O[C@H]7[C@H](O)[C@@H](O)[C@@H](O[C@H]1[C@H](O)[C@H]2O)O[C@@H]7CO)O[C@@H]6CO)O[C@@H]5CO)O[C@@H]4CO)O[C@@H]3CO [alpha-Cyclodextrin] | > 200 | 5.83 | 5.83 | 5.77 | 5.87 | 5.88 | 5.82 | 5.74 | –
ClC1C(Cl)C(Cl)C(Cl)C(Cl)C1Cl (stereo not drawn) [beta-1,2,3,4,5,6-Hexachlorocyclohexane] | > 200 | 5.52 | 5.63 | 5.65 | 5.7 | 5.74 | 5.75 | 5.87 | –
Cc1cc(-c2ccc(N)c(C)c2)ccc1N [o-Tolidine] | > 200 | 5.82 | 5.91 | 5.9 | 5.97 | 5.85 | 5.84 | 5.86 | –
COc1ccc(C)cc1N [p-Cresidine] | > 200 | 5.84 | 5.85 | 5.84 | 5.83 | 5.85 | 5.89 | 5.83 | –
Cc1ccc(C(C)C)cc1 [p-Cymene] | > 200 | 5.73 | 5.99 | 6.14 | 6.05 | 6.08 | 6.06 | 5.92 | –
CC(C)(C)OOC(=O)c1ccccc1 [tert-Butyl perbenzoate] | > 200 | 6.05 | 6.11 | 6.1 | 6.03 | 6 | 6.09 | 5.87 | –
CC(C)(C)c1ccccc1 [tert-Butylbenzene] | > 200 | 5.94 | 6.02 | 6.07 | 6.05 | 6.22 | 6.12 | 5.79 | –
